{
  "source": "patent US8828678B2",
  "about": "“Self-immolative probes for enzyme activity detection” (Enzo Life Sciences, Inc., priority 2010, dated 2014)",
  "key": {"[1]": {"system": "HeLa cells", "experiment": "Combined detection of hypoxia and redox status in live cells by fluorescent microscopy", "assay_type": "cell-based, human", "conditions": "for superoxide production (superoxide detection reagent staining) in treated HeLa cells: 0.2 mM CoCl2, 0.2 mM DFO or 1 mM DMOG, 3.5 h", "protocol": "HeLa and U-2 OS cells were cultured as described in Example 7. Stock solutions of CD-1 and CD-5 and various hypoxia inducers were prepared and stored as described in Examples 7 and 8. Additionally, 5 mM stock solutions (5000×) of 2′,7′-dichloro-fluorescein diacetate (DCFDA, an indicator of global ROS generation) and dihydroethidium (DHE, specific indicator of superoxide generation) were made in anhydrous DMF. DMSO was avoided, since this solvent is a hydroxyl radical scavenger and its presence may affect ROS/RNS production in cellular systems. The following stocks of ROS inducers were prepared in DMF: 10 mM pyocyanin (general ROS generating compound, 100×), 20 mM antimycin A (general ROS inducer, 400×), 50 mM pyrogallol (a superoxide radical generator, 1000×), 1 mM t-butyl hydroperoxide (TBHP, peroxide radical inducer, 10,000×). ROS probes and inducers were aliquoted and stored at −80° C.\nThe day before the experiment, the cells were seeded on 4-well microscope slides (Cel-Line™ Brand, Portsmouth, N.H.) at a density 1×10^4 cells/well (2×10^4 cells/cm^2). On the day of the experiment, the cells were preloaded with both hypoxia probe (5 μM final concentration in cell culture medium) and ROS detecting reagent with suitable spectral characteristics. Two ROS-detecting probes, DCFDA and DHE, were used in a pilot experiment in conjunction with hypoxia self-immolative probes. The hydrolyzed product of DCFDA, DCFH, is considered to be a general indicator of ROS, reacting with H2O2 (in the presence of peroxidases), ONOO^−, lipid hydroperoxides, and hydroxyl radicals. The oxidized product can be detected by strong fluorescence emission at around 525 nm when excited at around 488 nm. Because H2O2 is a secondary product of O2.^−, DCFH fluorescence has been used to implicate O2.^− production. The direct reaction of DHE with O2.^− yields a very specific fluorescent product, requiring no conversion to H2O2. The product of the DHE reaction with O2.^− fluoresces strongly at around 600 nm when excited at 500-530 nm.\nTested pairs of the probes were as follows: CD-5 with DCFDA or DHE, and CD-1 with DHE. A hypoxic state was induced in the cells as described in Example 7. Control slides were singly-stained with hypoxia or ROS-detecting probes only. Additional slides were treated with different general and specific ROS inducers and stained with ROS-detecting probes to control ROS staining. Post-treatment, the slides were washed twice with PBS, coverslipped and visualized using an Olympus BX-51 fluorescence microscope and a DAPI filter set (350 ex/470em) for CD-5, an FITC filter set (490ex/525em) for CD-1 or for total ROS detection reagent, and an orange filter set (550ex/620em) for HE."}, "[2]": {"system": "Jurkat cells", "experiment": "Combined detection of hypoxia and superoxide in live cells by flow cytometry", "assay_type": "cell-based, human", "protocol": "HeLa, U-2 OS, and Jurkat cell lines were cultured as described in Examples 7 and 9. Stock solutions of the probes and inhibitors were prepared as described in Examples 7 and 10.\nThe day before the experiment, HeLa and U-2 OS cells were seeded in 6-well tissue culture plates at a density of 5×10^5 cells/well. Jurkat cells were collected in logarithmic phase of growth and aliquoted at a density of 5×10^5 cells/sample. On the day of the experiment, the cells were preloaded with either hypoxia or ROS-detecting probes only or with the combination of hypoxia and ROS-detecting probes with compatible spectral characteristics. Samples stained with single hypoxia probes or with two ROS-detecting probes were made to validate data obtained with the combination of hypoxia and redox probes. The probes used in the experiment and their final concentrations in cell culture medium were as follows: CD-1(5 μM) and CD-6 (1 μM), DCFDA, peroxide/peroxynitrite/hydroxyl detection probe and HE, specific superoxide detection reagent (1 μM for both redox probes). Hypoxia was induced in the cells as described in Example 7. Additionally, cells were treated with different general and specific ROS inducers and stained with ROS-detecting probes to control ROS production and staining. Post-treatment, the adherent cells (HeLa and U-2 OS) were collected by trypsinization, re-suspended in 0.5 mL of fresh PBS and analyzed using flow cytometry. Jurkat cells were analyzed without washing. Flow cytometry experiments were performed using an FACS Calibur benchtop flow cytometer (BD Biosciences) equipped with a blue (488 nm) laser, and the fluorescence was recorded in the FITC (530/30 filter), PE (585/42 filter) and PerCP (670 LP filter) channels. Data were collected uncompensated, also compensation corrections were performed using unstained cells, and cells stained with each single dye separately (CD-1, CD-6, DCFDA or HE). To quantify data, quadrant gates were set using untreated samples."}, "[3]": {"experiment": "Chemical assay: reduction of probe by sodium hydrosulfite, fluorescence", "conditions": "PBS pH 7.4, room temperature, over a 60 minute period", "protocol": "A solution of probe CD-6 in DMSO (0.1-1.0 μl) was added to 90 μl of PBS buffer (10 mM, pH 7.4). After mixing, 10 μl of 100 mM aqueous sodium hydrosulfite was added. The reaction mixture was incubated at room temperature for amount of time ranging from 1 minute to 6 hours. As a control, 10 μl of water instead of sodium hydrosulfite was used."}, "[4]": {"system": "Jurkat cells", "experiment": "Detection of hypoxia using flow cytometry", "assay_type": "cell-based, human", "conditions": "5 μM CD-1, 1 μM CD-6, versus vehicle-treated loaded cells", "protocol": "HeLa and U-2 OS cells were cultured as described in Example 7. Human Jurkat T-cell leukemia cells (the A3 subclone) was obtained from ATCC and routinely cultured in RPMI-1640 medium (ATCC) supplemented with 10% fetal bovine serum (ATCC) and 100 U/ml penicillin+100 μg/ml streptomycin (Sigma-Aldrich). Cell cultures were maintained in an incubator at 37° C., with 5% CO2 atmosphere. CD-1, CD-4 and CD-6 self-immolative hypoxia probes were prepared as described in Example 8. All hypoxia inducers stocks were prepared as described in Example 7.\nThe day before the experiment, HeLa and U-2 OS cells were seeded in 6-well tissue culture plates at a density 5×10^5 cells/well. […] Post-treatment, the adherent cells (HeLa and U-2 OS) were collected by trypsinization, re-suspended in 0.5 mL of fresh PBS and analyzed using flow cytometry. Jurkat cells were analyzed without washing.\nFlow cytometry experiments were performed using a FACS Calibur benchtop flow cytometer (BD Biosciences) equipped with a blue (488 nm) laser, and the fluorescence was recorded in the FITC (530/30 filter), PE (585/42 filter) and PerCP (670 LP filter) channels. Hypoxic cells were detected by detecting increases in fluorescence. The degree of hypoxia (Khyp) can be quantified by using Kolmogorov-Smirnov statistics (Young, 1977) or the following formula: Khyp=(MFIhyp−MFIcon)/MFIhyp, […]"}, "[5]": {"system": "hypoxic HeLa cells", "experiment": "Detection of hypoxia with hypoxia markers using fluorescence microscopy", "assay_type": "cell-based, human", "conditions": "5 μM, 3.5 h, chemical induction of hypoxia (CoCl2, DFO, DMOG) or anoxic treatment, FITC filter", "protocol": "The human cervical adenocarcinoma epithelial cell line HeLa, U-2 OS human bone osteosarcoma cell line and hamster ovary CHO K1 cell line were obtained from ATTC. HeLa cells were routinely cultured in Eagle's Minimum Essential Medium with low glucose (ATCC), supplemented with 10% fetal bovine serum (ATCC) and 100 U/ml penicillin, 100 μg/ml streptomycin (Sigma-Aldrich, St. Louis, Mo.). U-2 OS cells were routinely cultured in McCoy's 5a Modified Medium (ATCC), supplemented with 10% fetal bovine serum heat (ATCC) and 100 U/ml penicillin+100 μg/ml streptomycin (Sigma-Aldrich). […]\nThe day before the experiment, the cells were seeded on 4-well microscope slides (Cel-Line™ Brand, Portsmouth, N.H.) at a density 1×10^4 cells/well (2×10^4 cells/cm^2). […] Post-treatment, the slides were washed twice with PBS, coverslipped and visualized using an Olympus BX-51 fluorescence microscope (FITC filter set, 490ex/525em).\nIn parallel, the hypoxia cellular state was detected using the hypoxia detecting reagent pimonidazole (Varia et al., 1998; Young, 1977). […] Slides were stained with a 1:100 dilution of FITC-MAb1 against pimonidazole (HP-1 kit from Hypoxyprobe) for 45 min at 4° C., washed twice with PBS, coverslipped and visualized using an Olympus BX-51 fluorescence microscope equipped with an FITC filter set (490ex/525em). […]"}, "[6]": {"system": "mammalian single-electron reductases", "conditions": "cited from earlier work"}, "[7]": {"system": "bacterial nitroreductases", "conditions": "cited from earlier work"}},
  "data": [
    {"smiles": "[Cl][Co][Cl]", "note": "[CoCl2, cobalt chloride]", "values": [
      {"measurement": "superoxide production (superoxide detection reagent staining) in treated HeLa cells", "setting": "[1]", "result": "only moderate staining"},
      {"measurement": "superoxide production: population of orange positive cells", "setting": "[2]; Jurkat cells, compared to the untreated cells", "result": "about 20%"}
    ]},
    {"smiles": "O=C(Nc1ccc2c(c1)Oc1c(cc3c4c1CCCN4CCC3)C21OC(=O)c2ccccc21)OCc1ccc([N+](=O)[O-])cc1", "note": "(centres unmarked) [CD-6]", "values": [
      {"measurement": "fluorescence after combining with sodium hydrosulfite", "setting": "[3]", "result": "increasing fluorescence"},
      {"measurement": "detection of hypoxic cell populations", "setting": "[2]; CD-6 1 μM with DCFDA or HE dyes or alone, flow cytometry", "result": "able to detect hypoxic cell populations"},
      {"measurement": "fluorescence in Jurkat cells treated with chemical hypoxia inducers or subjected to anoxia", "setting": "[4]", "result": "fluorescence increase"}
    ]},
    {"smiles": "CC(=O)N(O)CCCCCNC(=O)CCC(=O)N(O)CCCCCNC(=O)CCC(=O)N(O)CCCCCN", "note": "[DFO, desferrioxamine]", "values": [
      {"measurement": "superoxide production (superoxide detection reagent staining) in treated HeLa cells", "setting": "[1]", "result": "Abundant superoxide production"}
    ]},
    {"smiles": "O=C(Nc1ccc2c(c1)Oc1cc(NC(=O)N3CCOCC3)ccc1C21OC(=O)c2ccccc21)OCc1ccccc1", "note": "(centres unmarked) [CD-3]", "values": [
      {"measurement": "fluorescence signal in hypoxic HeLa cells", "setting": "[5]", "result": "did not yield any fluorescent signal"}
    ]},
    {"smiles": "COC(=O)CNC(=O)C(=O)OC", "note": "[DMOG, dimethyloxalylglycine, N-[Methoxyoxoacetyl]glycine methyl ester]", "values": [
      {"measurement": "superoxide production (superoxide detection reagent staining) in treated HeLa cells", "setting": "[1]", "result": "Abundant superoxide production"},
      {"measurement": "peroxides/peroxynitrite formation in treated HeLa cells", "setting": "[1]; DCFDA staining", "result": "detected in DMOG-treated cells only"}
    ]},
    {"smiles": "Cn1c2cccc(=O)c-2nc2ccccc21", "note": "[Pyocyanin, pyocyanin]", "values": [
      {"measurement": "hypoxia state: positive green cells", "setting": "[2]; Jurkat cells stained with CD-1, pyocyanin-treated", "result": "about 10%"},
      {"measurement": "superoxide production in treated Jurkat cells", "setting": "[2]; positive control for ROS production", "result": "high superoxide production"}
    ]},
    {"smiles": "O=c1c(Cl)c2oc3cc([N+](=O)[O-])ccc3nc-2c2ccccc12", "note": "[CNOB, 6-Chloro-9-nitro-5-oxo-5H-benzo[a]phenoxazine]", "values": [
      {"measurement": "substrate for mammalian nitroreductases", "setting": "[6]", "result": "apparently not a substrate"},
      {"measurement": "substrate for bacterial nitroreductases", "setting": "[7]", "result": "good substrate"}
    ]},
    {"smiles": "O=C(Nc1ccc2c(C(F)(F)F)cc(=O)oc2c1)OCc1ccc([N+](=O)[O-])cc1", "note": "[CD-5]", "values": [
      {"measurement": "hypoxia probe fluorescent signal in hypoxic HeLa cells, multiplexed with ROS dyes", "setting": "[1]; 5 μM, all four hypoxic samples (anoxia, CoCl2, DFO, DMOG)", "result": "bright fluorescent signal"}
    ]}
  ]
}
